Common to all, as to assay type: cell-based
The target in assay [1] is T1, adenosine A3 receptor (A3R) (Homo sapiens, UniProt P0DMS8).
T1 construct: gene ADORA3
T1 sequence (P0DMS8 1-318): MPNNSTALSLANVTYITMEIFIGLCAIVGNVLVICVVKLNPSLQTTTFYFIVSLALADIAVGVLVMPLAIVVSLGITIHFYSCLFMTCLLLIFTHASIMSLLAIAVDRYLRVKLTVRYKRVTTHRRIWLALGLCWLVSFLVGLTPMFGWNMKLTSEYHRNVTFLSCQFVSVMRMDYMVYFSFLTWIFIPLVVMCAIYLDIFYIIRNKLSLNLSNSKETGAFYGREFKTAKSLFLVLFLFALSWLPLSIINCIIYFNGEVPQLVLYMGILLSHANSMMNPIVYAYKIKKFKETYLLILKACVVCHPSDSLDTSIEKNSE
In words: inhibition of forskolin-stimulated cAMP accumulation in HEK-293 cells expressing A3R (partial agonist, Emax […]). As to conditions: read-out: IC50 (the source's name). (In general: Changes in cAMP serve as a functional read-out for many G protein-coupled receptors.)

Assay [2] addresses T2, A1R (adenosine A1 receptor) (Homo sapiens, UniProt P30542).
T2 construct: gene ADORA1
T2 sequence (P30542 1-326): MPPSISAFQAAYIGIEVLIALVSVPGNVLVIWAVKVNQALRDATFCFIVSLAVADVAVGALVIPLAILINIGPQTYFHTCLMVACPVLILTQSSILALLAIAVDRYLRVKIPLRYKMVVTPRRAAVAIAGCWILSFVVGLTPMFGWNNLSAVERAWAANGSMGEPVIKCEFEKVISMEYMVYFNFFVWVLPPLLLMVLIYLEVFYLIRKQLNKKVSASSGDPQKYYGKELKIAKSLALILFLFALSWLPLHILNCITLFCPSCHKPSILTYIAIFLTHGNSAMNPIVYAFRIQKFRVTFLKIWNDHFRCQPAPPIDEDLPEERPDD
In words: cAMP accumulation assay in HEK-293 cells expressing A1R (reference agonist).

Assay [3] addresses T1, adenosine A3 receptor (A3R). Description: cAMP accumulation assay in HEK-293 cells expressing A3R (reference agonist).

Take `CNC(=O)[C@H]1O[C@@H](n2cnc3c(NCc4ccc5c(c4)/N=N/c4ccccc4CC5)ncnc32)[C@H](O)[C@@H]1O` [compound 4, E-MRS7787]: in assay [1], the EC50 stood at 31 nM.
As for `OC[C@H]1O[C@@H](n2cnc3c(NC4CCCC4)ncnc32)[C@H](O)[C@@H]1O` [CPA], in assay [2], the “cAMP accumulation assay in HEK-293 cells expressing A1R (reference agonist)” value was “CPA (N^6-cyclopentyladenosine, selective A1R agonist) induced the maximum A3R- and A1R-mediated inhibition of cAMP accumulation”.
In the case of `CNC(=O)[C@@]12C[C@@H]1[C@@H](n1cnc3c(NCc4cccc(Cl)c4)nc(C#Cc4ccc(F)c(F)c4)nc31)[C@H](O)[C@@H]2O` [MRS5698, (1S,2R,3S,4R,5S)-4-(6-((3-chlorobenzyl)amino)-2-((3,4-difluorophenyl)-ethynyl)-9H-purin-9-yl)-2,3-dihydroxy-N-methylbicyclo[3.1.0]hexane-1-carboxamide], in assay [3], the “cAMP accumulation assay in HEK-293 cells expressing A3R (reference agonist)” value was “treatment with MRS5698 and CPA (N^6-cyclopentyladenosine, selective A1R agonist) induced the maximum A3R- and A1R-mediated inhibition of cAMP accumulation”.

The values above are taken from PMC11726555, “Photoswitchable Diazocine Derivative for Adenosine A3 Receptor Activation in Psoriasis” (Journal of the American Chemical Society, 2024).
